Assay results as given in patent US20240408086A1, “USE OF LUVADAXISTAT FOR THE TREATMENT OF COGNITIVE IMPAIRMENT” (TAKEDA PHARMACEUTICAL COMPANY LIMITED, priority 2021, published 2024).

Test system: rat hippocampus
Test: D-serine on short-term potentiation and long-term depression in rat hippocampal slices
Design: species or system Sprague Dawley rats
Conditions: 1 mM D-serine vs controls
Procedure: To obtain rat hippocampal slices, 4-week-old Sprague Dawley rats (provided by Elevage Janvier, Le Genest-Saint-Isle, France) were euthanized by fast decapitation without anesthesia. The brain was quickly removed and soaked in ice-cold oxygenated buffer: 2 mM KCl, 1.2 mM NaH2PO4, 7 mM MgCl2, 0.5 mM CaCl2), 26 mM NaHCO3, 11 mM glucose, and 250 mM sucrose. Hippocampal slices were prepared at 400 μm thickness with a McILWAIN tissue chopper. […] Slices were continuously perfused with oxygenated aCSF during experiments. The animals were housed and used in accordance with French and European legislation.
Electrophysiological recordings were obtained from a single hippocampal slice placed on the chamber and perfused with aCSF at a constant rate. Extracellular field excitatory postsynaptic potentials (fEPSPs) were recorded in the CA1 stratum radiatum using a glass micropipette filled with aCSF. fEPSPs were evoked by electrical stimulation of Schaffer collaterals/commissural pathway at 0.1 Hz with a glass stimulating electrode placed in the stratum radiatum.
Acute high doses (1 mM) of D-serine induced hippocampal synaptic plasticity (short-term potentiation and long-term depression) compared with controls in the rat hippocampus (FIGS. 1A-1C). Data in FIGS. 1A and 1B were normalized to the 10-minute control period.

For `N[C@H](CO)C(=O)O` [D-serine], the “Depression of EPSP amplitudes (long-term depression)” value (p=0.0374, unpaired t-test) was “significantly decreased the depression of EPSP amplitudes” and the “Potentiation of excitatory postsynaptic potential (EPSP) amplitudes (short-term potentiation)” value (p=0.0603, unpaired t-test) was “increased the potentiation of excitatory postsynaptic potential (EPSP) amplitudes, although this change was not statistically significant”.
